Results taken from patent US9149038B2, “4-amino-6-(heterocyclic)picolinates and 6-amino-2-(heterocyclic)pyrimidine-4-carboxylates and their use as herbicides” (Dow AgroSciences LLC, priority 2013, dated 2015).
Where two headings read alike, the source gives them in different places.

How the values were obtained:
[1] = tested on: Key Broadleaf and Grass Weed as well as Crop Species; test: Post-Emergent Test I: postemergent herbicidal activity, visual phytotoxicity rating 10 days after treatment (Table 5); type: in vivo; conditions: 4 kg ai/ha; for Visual Growth Reduction (%) 10 Days After Application ECHCG: barnyardgrass (Echinochloa crus-galli); for pest or weed control at 4000 g/ha: post-emergence, 240 h, 10 days after application
Protocol: Herbicidal evaluations were made visually on a scale of 0 to 100 where 0 represents no activity and 100 represents complete plant death. Post-Emergent Test I: Seeds of test species were obtained from commercial suppliers and planted into a 5″-round pot containing soil-less media mix (Metro-Mix 360®, Sun Gro Horticulture). Postemergence treatments were planted 8-12 days (d) prior to application and cultured in a greenhouse equipped with supplemental light sources to provide a 16 h photoperiod at 24-29° C. All pots were surface irrigated. Approximately 10 milligrams (mg) of each compound were dissolved in 1.3 mL acetone-DMSO (97:3, volume per volume (v/v)) and diluted with 4.1 mL water-isopropanol-crop oil concentrate (78:20:2, v/v/v) containing 0.02% Triton X-155. Treatments were serial diluted with the above formulation solvent to provide 1.85, 0.926, 0.462 and 0.231 milligrams per milliliter (mg/mL) of test compound delivered in 2.7 mL/pot (roughly equivalent to 4.0, 2.0, 1.0, and 0.5 kg/ha, respectively). Formulated compounds were applied using a DeVilbiss® compressed air sprayer at 2-4 pounds per square inch (psi). Following treatment, pots were returned to the greenhouse for the duration of the experiment. All pots were sub-irrigated as needed to provide optimum growing conditions. All pots were fertilized one time per week by subirrigating with Peters Peat-Lite Special® fertilizer (20-10-20). Phytotoxicity ratings were obtained 10 days after treatment postemergence applications. All evaluations were made visually on a scale of 0 to 100 where 0 represents no activity and 100 represents complete plant death and are presented as indicated in Table 4.

[2] = tested on: Wheat and Barley and weed species; test: Post-Emergent Test III: postemergent herbicidal activity in wheat and barley, visual rating after 21 d and probit GR20/GR50/GR80/GR90 (Tables 9-13); type: in vivo; conditions: for GR50 ALOMY / GR50 APESV / GR50 KCHSC / GR50 LOLSS / GR50 SETVI: growth reduction of 50%; for GR50 ALOMY / GR80 ALOMY / GR90 ALOMY / GR50 APESV / GR80 APESV / GR90 APESV / GR20 HORVS / GR50 KCHSC / GR80 KCHSC / GR90 KCHSC / GR50 LOLSS / GR80 LOLSS / GR90 LOLSS / GR50 SETVI / GR80 SETVI / GR90 SETVI / GR20 TRZAS: probit analysis; for GR80 ALOMY / GR80 APESV / GR80 KCHSC / GR80 LOLSS / GR80 SETVI: growth reduction of 80%; for GR90 ALOMY / GR90 APESV / GR90 KCHSC / GR90 LOLSS / GR90 SETVI: growth reduction of 90%; for GR20 HORVS / GR20 TRZAS: growth reduction of 20%; for pest or weed control at 35 g/ha / pest or weed control at 70 g/ha / pest or weed control at 140 g/ha: post-emergence, 504 h; for Visual Growth Reduction (%) 21 Days After Application KCHSC / GR50 KCHSC / GR80 KCHSC / GR90 KCHSC: KCHSC kochia (Kochia scoparia)
How it was run: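 Greenhouse plants (~18/17 °C, 14 h photoperiod) at second–third true leaf stage sprayed at 187 L/ha with a high rate and ½× to 1/16× serial dilutions. Visual injury 0–100% versus solvent-blank controls scored at 21 d; GR20, GR50, GR80 and GR90 derived by probit analysis across rates.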

[3] = giant foxtail (Setaria faberi), read-out: Visual Growth Reduction (%) 10 Days After Application SETFA
[4] = ivyleaf morningglory (Ipomoea hederecea), read-out: Visual Growth Reduction (%) 10 Days After Application IPOHE
[5] = sunflower (Helianthus annuus), read-out: Visual Growth Reduction (%) 10 Days After Application HELAN
[6] = wild oats (Avena fatua), read-out: Visual Growth Reduction (%) 10 Days After Application AVEFA
[7] = ALOMY black-grass (Alopecurus myosuroides)
[8] = APESV bentgrass (Apera spica-venti)
[9] = Hordeum vulgare, HORVS barley, spring (crop), 35 g ai/ha, read-out: Visual Growth Reduction (%) 21 Days After Application HORVS
[10] = Hordeum vulgare, HORVS barley, spring (crop), 70 g ai/ha, read-out: Visual Growth Reduction (%) 21 Days After Application HORVS
[11] = Hordeum vulgare, HORVS barley, spring (crop), 140 g ai/ha, read-out: Visual Growth Reduction (%) 21 Days After Application HORVS
[12] = SETVI green foxtail (Setaria viridis)
[13] = Triticum aestivum, TRZAS wheat, spring (crop), 35 g ai/ha, read-out: Visual Growth Reduction (%) 21 Days After Application TRZAS
[14] = Triticum aestivum, TRZAS wheat, spring (crop), 70 g ai/ha, read-out: Visual Growth Reduction (%) 21 Days After Application TRZAS
[15] = Triticum aestivum, TRZAS wheat, spring (crop), 140 g ai/ha, read-out: Visual Growth Reduction (%) 21 Days After Application TRZAS
[16] = ALOMY black-grass (Alopecurus myosuroides), 35 g ai/ha, read-out: Visual Growth Reduction (%) 21 Days After Application ALOMY
[17] = ALOMY black-grass (Alopecurus myosuroides), 70 g ai/ha, read-out: Visual Growth Reduction (%) 21 Days After Application ALOMY
[18] = ALOMY black-grass (Alopecurus myosuroides), 140 g ai/ha, read-out: Visual Growth Reduction (%) 21 Days After Application ALOMY
[19] = APESV bentgrass (Apera spica-venti), 35 g ai/ha, read-out: Visual Growth Reduction (%) 21 Days After Application APESV
[20] = APESV bentgrass (Apera spica-venti), 70 g ai/ha, read-out: Visual Growth Reduction (%) 21 Days After Application APESV
[21] = APESV bentgrass (Apera spica-venti), 140 g ai/ha, read-out: Visual Growth Reduction (%) 21 Days After Application APESV
[22] = LOLSS ryegrass, 35 g ai/ha, read-out: Visual Growth Reduction (%) 21 Days After Application LOLSS
[23] = LOLSS ryegrass, 70 g ai/ha, read-out: Visual Growth Reduction (%) 21 Days After Application LOLSS
[24] = LOLSS ryegrass, 140 g ai/ha, read-out: Visual Growth Reduction (%) 21 Days After Application LOLSS
[25] = SETVI green foxtail (Setaria viridis), 35 g ai/ha, read-out: Visual Growth Reduction (%) 21 Days After Application SETVI
[26] = SETVI green foxtail (Setaria viridis), 70 g ai/ha, read-out: Visual Growth Reduction (%) 21 Days After Application SETVI
[27] = SETVI green foxtail (Setaria viridis), 140 g ai/ha, read-out: Visual Growth Reduction (%) 21 Days After Application SETVI

Compound: Nc1c(Cl)c(C(=O)O)nc(-c2ccc3c(c2F)OC(F)(F)O3)c1Cl [Compound 5]
- Visual Growth Reduction (%) 10 Days After Application ECHCG [1]: G (0-29)
- pest or weed control at 4000 g/ha [1, 3]: 75 to 84%
- pest or weed control at 4000 g/ha [1, 4]: 95 to 100%
- pest or weed control at 4000 g/ha [1, 5]: 95 to 100%
- pest or weed control at 4000 g/ha [1, 6]: 0 to 29%

Compound: COC(=O)c1nc(-c2cccc3c2OCO3)c(F)c(N)c1Cl [Compound 71, Methyl 4-amino-6-(benzo[d][1,3]dioxol-4-yl)-3-chloro-5-fluoropicolinate]
- Visual Growth Reduction (%) 10 Days After Application ECHCG [1]: G (0-29)
- pest or weed control at 4000 g/ha [1, 3]: 0 to 29%
- pest or weed control at 4000 g/ha [1, 4]: 75 to 84%
- pest or weed control at 4000 g/ha [1, 5]: 95 to 100%
- pest or weed control at 4000 g/ha [1, 6]: 0 to 29%

Compound: COC(=O)c1nc(-c2ccc3c(c2F)OC(F)(F)O3)c(F)c(N)c1Cl [Compound 10]
- GR50 ALOMY [2, 7]: 52 g ai/ha
- GR80 ALOMY [2, 7]: 109 g ai/ha
- GR90 ALOMY [2, 7]: >140 g ai/ha
- GR50 APESV [2, 8]: 65 g ai/ha
- GR80 APESV [2, 8]: 106 g ai/ha
- GR90 APESV [2, 8]: 138 g ai/ha
- GR20 HORVS ([2]; HORVS barley, spring (crop)): 11 g ai/ha
- pest or weed control at 35 g/ha [2, 9]: 60 to 74%
- pest or weed control at 70 g/ha [2, 10]: 75 to 84%
- pest or weed control at 140 g/ha [2, 11]: 85 to 94%
- Visual Growth Reduction (%) 21 Days After Application KCHSC ([2]; 35 g ai/ha): G (0-29)
- Visual Growth Reduction (%) 21 Days After Application KCHSC ([2]; 70 g ai/ha): D (60-74)
- Visual Growth Reduction (%) 21 Days After Application KCHSC ([2]; 140 g ai/ha): C (75-84)
- GR50 KCHSC [2]: 78 g ai/ha
- GR80 KCHSC [2]: 117 g ai/ha
- GR90 KCHSC [2]: >140 g ai/ha
- GR50 LOLSS ([2]; LOLSS ryegrass): 93 g ai/ha
- GR80 LOLSS ([2]; LOLSS ryegrass): >140 g ai/ha
- GR90 LOLSS ([2]; LOLSS ryegrass): >140 g ai/ha
- GR50 SETVI [2, 12]: 36 g ai/ha
- GR80 SETVI [2, 12]: 63 g ai/ha
- GR90 SETVI [2, 12]: 85 g ai/ha
- GR20 TRZAS ([2]; TRZAS wheat, spring (crop)): 4 g ai/ha
- pest or weed control at 35 g/ha [2, 13]: 60 to 74%
- pest or weed control at 70 g/ha [2, 14]: 85 to 94%
- pest or weed control at 140 g/ha [2, 15]: 85 to 94%
- pest or weed control at 35 g/ha [2, 16]: 30 to 44%
- pest or weed control at 70 g/ha [2, 17]: 45 to 59%
- pest or weed control at 140 g/ha [2, 18]: 85 to 94%
- pest or weed control at 35 g/ha [2, 19]: 0 to 29%
- pest or weed control at 70 g/ha [2, 20]: 45 to 59%
- pest or weed control at 140 g/ha [2, 21]: 85 to 94%
- pest or weed control at 35 g/ha [2, 22]: 0 to 29%
- pest or weed control at 70 g/ha [2, 23]: 30 to 44%
- pest or weed control at 140 g/ha [2, 24]: 60 to 74%
- pest or weed control at 35 g/ha [2, 25]: 60 to 74%
- pest or weed control at 70 g/ha [2, 26]: 75 to 84%
- pest or weed control at 140 g/ha [2, 27]: 95 to 100%

Compound: COC(=O)c1nc(-c2c(F)cc3c(c2F)OC(F)(F)O3)cc(N)c1Cl [Compound 46]
- GR50 ALOMY [2, 7]: 18 g ai/ha
- GR80 ALOMY [2, 7]: 35 g ai/ha
- GR90 ALOMY [2, 7]: 49 g ai/ha
- GR50 APESV [2, 8]: 88 g ai/ha
- GR80 APESV [2, 8]: >140 g ai/ha
- GR90 APESV [2, 8]: >140 g ai/ha
- GR20 HORVS ([2]; HORVS barley, spring (crop)): 8 g ai/ha
- pest or weed control at 35 g/ha [2, 9]: 45 to 59%
- pest or weed control at 70 g/ha [2, 10]: 60 to 74%
- pest or weed control at 140 g/ha [2, 11]: 85 to 94%
- Visual Growth Reduction (%) 21 Days After Application KCHSC ([2]; 35 g ai/ha): B (85-94)
- Visual Growth Reduction (%) 21 Days After Application KCHSC ([2]; 70 g ai/ha): A (95-100)
- Visual Growth Reduction (%) 21 Days After Application KCHSC ([2]; 140 g ai/ha): A (95-100)
- GR50 KCHSC [2]: 1 g ai/ha
- GR80 KCHSC [2]: 7 g ai/ha
- GR90 KCHSC [2]: 17 g ai/ha
- GR50 LOLSS ([2]; LOLSS ryegrass): 91 g ai/ha
- GR80 LOLSS ([2]; LOLSS ryegrass): >140 g ai/ha
- GR90 LOLSS ([2]; LOLSS ryegrass): >140 g ai/ha
- GR50 SETVI [2, 12]: 106 g ai/ha
- GR80 SETVI [2, 12]: >140 g ai/ha
- GR90 SETVI [2, 12]: >140 g ai/ha
- GR20 TRZAS ([2]; TRZAS wheat, spring (crop)): 10 g ai/ha
- pest or weed control at 35 g/ha [2, 13]: 60 to 74%
- pest or weed control at 70 g/ha [2, 14]: 75 to 84%
- pest or weed control at 140 g/ha [2, 15]: 85 to 94%
- pest or weed control at 35 g/ha [2, 16]: 60 to 74%
- pest or weed control at 70 g/ha [2, 17]: 95 to 100%
- pest or weed control at 140 g/ha [2, 18]: 95 to 100%
- pest or weed control at 35 g/ha [2, 19]: 0 to 29%
- pest or weed control at 70 g/ha [2, 20]: 45 to 59%
- pest or weed control at 140 g/ha [2, 21]: 60 to 74%
- pest or weed control at 35 g/ha [2, 22]: 0 to 29%
- pest or weed control at 70 g/ha [2, 23]: 45 to 59%
- pest or weed control at 140 g/ha [2, 24]: 60 to 74%
- pest or weed control at 35 g/ha [2, 25]: 0 to 29%
- pest or weed control at 70 g/ha [2, 26]: 30 to 44%
- pest or weed control at 140 g/ha [2, 27]: 60 to 74%
